According to US20250236608A1, “EGFR INHIBITORS” (Blueprint Medicines Corporation, priority 2022, published 2025):
Counter-ions that a name gives are not always drawn.

Key:
[1] = biological target: pEGFR (Tyr1068) in PC-9 cells (Ex19Del) (Homo sapiens (Human), UniProt P00533, DEL746-750); assay: PC-9 pEGFR AlphaLISA assay; type: cell-based; details: 4 hours incubation, p-EGFR (Tyr1068) AlphaLISA, read-out: Ext pEGFR_PC-9 Ex19Del IC50
How it was run: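 Readout: AlphaLISA SureFire Ultra signal in cell lysates, with acceptor beads for 1.5-2 h and donor beads overnight at room temperature in the dark. Beforehand, unstimulated cells in 10% FBS medium received compounds (10 points, 4-fold steps) for 4 h at 37° C. IC50 came from percent inhibition curves.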

EGFR L858R = EGFR L858R (Homo sapiens (Human), UniProt P00533, L858R); assay: Biochemical EGFR inhibition assay, EGFR L858R; details: Caliper mobility shift; 1.0 mM ATP or ATP Km; read-out: Enz EGFR_L858R IC50
EGFR L858R, sequence (P00533 25-1210 L858R): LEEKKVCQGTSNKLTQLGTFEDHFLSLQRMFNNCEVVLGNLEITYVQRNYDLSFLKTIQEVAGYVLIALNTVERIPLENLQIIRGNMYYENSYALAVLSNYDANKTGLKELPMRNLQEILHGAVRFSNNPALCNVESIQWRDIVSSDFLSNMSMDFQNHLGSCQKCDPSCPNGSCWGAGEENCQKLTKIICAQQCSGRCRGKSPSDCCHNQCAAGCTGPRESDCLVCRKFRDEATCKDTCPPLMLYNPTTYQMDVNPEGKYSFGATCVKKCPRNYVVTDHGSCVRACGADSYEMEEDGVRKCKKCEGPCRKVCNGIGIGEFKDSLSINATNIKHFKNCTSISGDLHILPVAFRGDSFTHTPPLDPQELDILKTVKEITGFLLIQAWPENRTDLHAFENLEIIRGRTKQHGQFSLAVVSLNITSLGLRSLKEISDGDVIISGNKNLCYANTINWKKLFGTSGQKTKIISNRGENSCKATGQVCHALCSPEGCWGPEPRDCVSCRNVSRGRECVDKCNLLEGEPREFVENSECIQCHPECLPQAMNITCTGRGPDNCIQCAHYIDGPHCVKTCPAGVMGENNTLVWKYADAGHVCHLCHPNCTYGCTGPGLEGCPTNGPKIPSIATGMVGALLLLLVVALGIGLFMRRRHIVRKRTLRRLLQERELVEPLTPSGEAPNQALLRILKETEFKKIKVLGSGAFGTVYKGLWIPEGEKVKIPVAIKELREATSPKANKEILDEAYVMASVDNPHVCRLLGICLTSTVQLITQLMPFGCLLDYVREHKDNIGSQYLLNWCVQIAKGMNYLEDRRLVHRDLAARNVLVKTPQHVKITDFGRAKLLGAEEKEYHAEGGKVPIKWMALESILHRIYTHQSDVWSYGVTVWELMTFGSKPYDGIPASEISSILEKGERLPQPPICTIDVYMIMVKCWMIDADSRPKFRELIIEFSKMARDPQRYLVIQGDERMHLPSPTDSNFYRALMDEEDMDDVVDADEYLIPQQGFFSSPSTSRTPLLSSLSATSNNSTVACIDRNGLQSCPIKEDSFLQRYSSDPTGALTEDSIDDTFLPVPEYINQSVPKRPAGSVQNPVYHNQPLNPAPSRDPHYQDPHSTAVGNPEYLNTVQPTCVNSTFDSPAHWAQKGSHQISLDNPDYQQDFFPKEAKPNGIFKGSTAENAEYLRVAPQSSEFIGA

EGFR (d746-750) = EGFR (d746-750) (Homo sapiens (Human), UniProt P00533, DEL746-750); assay: Biochemical EGFR inhibition assay, EGFR (d746-750); details: Caliper mobility shift; 1.0 mM ATP or ATP Km; read-out: Enz EGFR_Exon19-del746-750 IC50
EGFR (d746-750), sequence (P00533 other isoform, or with tags, fused parts or gaps del 1-694/del 746-750 limits assumed): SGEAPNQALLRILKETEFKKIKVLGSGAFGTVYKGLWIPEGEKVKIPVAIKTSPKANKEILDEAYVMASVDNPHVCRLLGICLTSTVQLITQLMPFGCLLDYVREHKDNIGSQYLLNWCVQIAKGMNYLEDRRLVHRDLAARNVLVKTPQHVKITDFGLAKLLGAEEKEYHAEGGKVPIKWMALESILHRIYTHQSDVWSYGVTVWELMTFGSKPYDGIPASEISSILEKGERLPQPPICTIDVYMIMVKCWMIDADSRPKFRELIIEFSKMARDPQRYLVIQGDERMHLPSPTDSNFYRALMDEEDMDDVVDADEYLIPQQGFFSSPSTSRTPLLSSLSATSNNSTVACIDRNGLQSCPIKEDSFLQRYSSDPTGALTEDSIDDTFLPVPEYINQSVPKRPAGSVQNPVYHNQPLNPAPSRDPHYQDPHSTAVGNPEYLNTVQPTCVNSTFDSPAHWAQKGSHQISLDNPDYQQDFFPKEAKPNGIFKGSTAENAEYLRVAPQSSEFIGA

pEGFR (Tyr1068) in PC-9 cells (Ex19Del), sequence (P00533 other isoform, or with tags, fused parts or gaps del 746-750): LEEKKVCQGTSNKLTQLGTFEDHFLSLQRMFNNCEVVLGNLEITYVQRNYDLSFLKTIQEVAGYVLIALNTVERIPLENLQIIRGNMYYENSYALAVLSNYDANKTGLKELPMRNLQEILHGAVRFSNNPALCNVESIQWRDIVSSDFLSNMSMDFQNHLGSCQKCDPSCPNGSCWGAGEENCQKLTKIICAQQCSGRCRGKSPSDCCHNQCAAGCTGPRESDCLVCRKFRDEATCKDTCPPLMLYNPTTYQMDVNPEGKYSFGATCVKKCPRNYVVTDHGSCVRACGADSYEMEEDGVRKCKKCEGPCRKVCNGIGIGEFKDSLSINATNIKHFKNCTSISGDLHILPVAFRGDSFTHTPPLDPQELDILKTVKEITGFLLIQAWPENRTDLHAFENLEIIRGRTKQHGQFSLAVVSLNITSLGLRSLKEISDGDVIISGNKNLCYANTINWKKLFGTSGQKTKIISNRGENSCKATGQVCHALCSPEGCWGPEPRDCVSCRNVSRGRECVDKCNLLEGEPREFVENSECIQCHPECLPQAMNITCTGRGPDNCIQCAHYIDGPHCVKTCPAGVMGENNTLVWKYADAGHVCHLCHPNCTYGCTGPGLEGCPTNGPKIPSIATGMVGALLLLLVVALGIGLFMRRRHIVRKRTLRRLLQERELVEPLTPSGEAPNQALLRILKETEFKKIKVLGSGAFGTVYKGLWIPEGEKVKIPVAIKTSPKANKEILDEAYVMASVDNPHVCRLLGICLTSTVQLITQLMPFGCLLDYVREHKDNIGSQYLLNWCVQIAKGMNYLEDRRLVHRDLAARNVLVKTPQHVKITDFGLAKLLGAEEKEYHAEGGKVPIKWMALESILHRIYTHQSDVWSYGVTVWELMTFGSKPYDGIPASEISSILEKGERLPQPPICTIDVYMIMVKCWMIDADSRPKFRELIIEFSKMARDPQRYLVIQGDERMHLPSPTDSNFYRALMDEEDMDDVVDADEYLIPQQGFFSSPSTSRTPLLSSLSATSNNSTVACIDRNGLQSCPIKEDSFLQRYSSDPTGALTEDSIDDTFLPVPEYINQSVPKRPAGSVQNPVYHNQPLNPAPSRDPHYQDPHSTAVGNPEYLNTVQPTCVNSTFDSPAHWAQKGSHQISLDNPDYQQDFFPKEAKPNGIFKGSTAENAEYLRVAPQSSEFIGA

SMILES	IC50 [1] [nM]	IC50 (EGFR L858R) [nM]	IC50 (EGFR (d746-750)) [nM]
CCn1cc(-c2ncnc3cc(OC)c(NC(=O)[C@]45COC[C@H]4C5)nc23)c(-c2ccccc2)n1 (single isomer, unassigned) [Example 388, (1S,5S)—N-(4-(1-ethyl-3-phenyl-1H-pyrazol-4-yl)-7-methoxypyrido[3,2-d]pyrimidin-6-yl)-3-oxabicyclo[3.1.0]hexane-1-carboxamide or (1R,5R)—N-(4-(1-ethyl-3-phenyl-1H-pyrazol-4-yl)-7-methoxypyrido[3,2-d]pyrimidin-6-yl)-3-oxabicyclo[3.1.0]hexane-1-carboxamide]	0.4	4.8	0.5
CCOc1cc2ncnc(-c3cn(C)nc3-c3ccccc3)c2nc1NC(=O)[C@@]12COC[C@@H]1C2 (single isomer, unassigned) [Example 380, (1R,5R)—N-(7-ethoxy-4-(1-methyl-3-phenyl-1H-pyrazol-4-yl)pyrido[3,2-d]pyrimidin-6-yl)-3-oxabicyclo[3.1.0]hexane-1-carboxamide or (1S,5S)—N-(7-ethoxy-4-(1-methyl-3-phenyl-1H-pyrazol-4-yl)pyrido[3,2-d]pyrimidin-6-yl)-3-oxabicyclo[3.1.0]hexane-1-carboxamide]	1.4	2.5	0.7
COc1cc2ncnc(-c3cn(C)nc3-c3ccccc3)c2cc1OC(=O)N1CCN(C)CC1(C)C [Example 78, 7-methoxy-4-(1-methyl-3-phenyl-1H-pyrazol-4-yl)quinazolin-6-yl 2,2,4-trimethylpiperazine-1-carboxylate]	8.1	7	2.4
COc1cc2ncnc(-c3cn(C)nc3-c3c(F)cccc3F)c2cc1OC(=O)N1CCOC[C@@H]1C [Example 67, 4-(3-(2,6-difluorophenyl)-1-methyl-1H-pyrazol-4-yl)-7-methoxyquinazolin-6-yl (S)-3-methylmorpholine-4-carboxylate]	12.4	8.3	2.8
COc1cc2ncnc(-c3cn(CC(F)F)nc3-c3ccccc3)c2cc1[C@@H](C)O (single isomer, unassigned) [Example 102, (R)-1-(4-(1-(2,2-difluoroethyl)-3-phenyl-1H-pyrazol-4-yl)-7-methoxyquinazolin-6-yl)ethan-1-ol or (S)-1-(4-(1-(2,2-difluoroethyl)-3-phenyl-1H-pyrazol-4-yl)-7-methoxyquinazolin-6-yl)ethan-1-ol]	4.1	2	1.2
CCn1cc([C@H](C)Oc2nc3c(-c4cn(C)nc4-c4ccccc4)ncnc3cc2OC)nn1 [Example 36, (S)-6-(1-(1-ethyl-1H-1,2,3-triazol-4-yl)ethoxy)-7-methoxy-4-(1-methyl-3-phenyl-1H-pyrazol-4-yl)pyrido[3,2-d]pyrimidine]	14	9.7	3.2
CCC(=O)Nc1cc2c(-c3cn(C)nc3-c3ccccc3)ncnc2cc1OCC1COC1 [Example 277, N-(4-(1-methyl-3-phenyl-1H-pyrazol-4-yl)-7-(oxetan-3-ylmethoxy)quinazolin-6-yl)propionamide]	6	3.7	1.9
COc1cc2ncnc(-c3cn(C)nc3-c3ccccc3)c2nc1NC(=O)[C@@]12COC[C@@H]1C2 (single isomer, unassigned) [Example 431, (1R,5R)—N-(7-methoxy-4-(1-methyl-3-phenyl-1H-pyrazol-4-yl)pyrido[3,2-d]pyrimidin-6-yl)-3-oxabicyclo[3.1.0]hexane-1-carboxamide or (1S,5S)—N-(7-methoxy-4-(1-methyl-3-phenyl-1H-pyrazol-4-yl)pyrido[3,2-d]pyrimidin-6-yl)-3-oxabicyclo[3.1.0]hexane-1-carboxamide]	1.2	1.4	0.6
COc1cc2ncnc(-c3cn(C)nc3-c3ccccc3)c2cc1-c1cnn(CCN(C)C)c1 [Example 233, 2-(4-(7-methoxy-4-(1-methyl-3-phenyl-1H-pyrazol-4-yl)quinazolin-6-yl)-1H-pyrazol-1-yl)-N,N-dimethylethan-1-amine]	2.5	2.9	1.7
COc1cc2ncnc(-c3cn(C)nc3-c3ccccc3)c2cc1NC(=O)c1ccccc1F [Example 198, 2-fluoro-N-(7-methoxy-4-(1-methyl-3-phenyl-1H-pyrazol-4-yl)quinazolin-6-yl)benzamide]	1.1	1.3	0.8
COc1cc2ncnc(-c3cn(C)nc3-c3ccccc3)c2cc1-c1cccc2c1cnn2C [Example 141, 7-methoxy-6-(1-methyl-1H-indazol-4-yl)-4-(1-methyl-3-phenyl-1H-pyrazol-4-yl)quinazoline]	7.6	7.1	1.9
COc1cc2ncnc(-c3cn(C)nc3-c3ccccc3)c2cc1NC(=O)[C@@H]1CCN(C)C[C@H]1F (racemic) [Example 339, trans-rac-(3R,4R)-3-fluoro-N-(7-methoxy-4-(1-methyl-3-phenyl-1H-pyrazol-4-yl)quinazolin-6-yl)-1-methylpiperidine-4-carboxamide trifluoroacetate]	0.8	1.7	1
COc1cc2ncnc(-c3cn(C)nc3-c3ccccc3)c2nc1NC(=O)[C@]1(C(F)(F)F)CCN(C)C1 (single isomer, unassigned) [Example 395, (S)—N-(7-methoxy-4-(1-methyl-3-phenyl-1H-pyrazol-4-yl)pyrido[3,2-d]pyrimidin-6-yl)-1-methyl-3-(trifluoromethyl) pyrrolidine-3-carboxamide or (R)—N-(7-methoxy-4-(1-methyl-3-phenyl-1H-pyrazol-4-yl)pyrido[3,2-d]pyrimidin-6-yl)-1-methyl-3-(trifluoromethyl) pyrrolidine-3-carboxamide]	5.3	3.1	1.2
CCOc1cc2ncnc(-c3cn(C)nc3-c3ccccc3)c2cc1CO [Example 99, (7-ethoxy-4-(1-methyl-3-phenyl-1H-pyrazol-4-yl)quinazolin-6-yl)methanol]	4.2	2	1.1
COc1cc2ncnc(-c3cn(C)nc3-c3ccccc3)c2nc1NC(=O)c1ccc(C2CC2)nc1 [Example 357, 6-cyclopropyl-N-(7-methoxy-4-(1-methyl-3-phenyl-1H-pyrazol-4-yl)pyrido[3,2-d]pyrimidin-6-yl)nicotinamide]	4.4	2.2	1.1
COc1cc2ncnc(-c3cn(C)nc3-c3ccccc3)c2cc1NC(=O)C(C)(C)N(C)C [Example 246, 2-(dimethylamino)-N-(7-methoxy-4-(1-methyl-3-phenyl-1H-pyrazol-4-yl)quinazolin-6-yl)-2-methylpropanamide]	7.8	5.6	2.5
CCOc1cc2ncnc(-c3cn(C)nc3-c3ccccc3)c2cc1OC(=O)N1CCN(C)C[C@@H]1C [Example 96, 7-ethoxy-4-(1-methyl-3-phenyl-1H-pyrazol-4-yl)quinazolin-6-yl(S)-2,4-dimethylpiperazine-1-carboxylate]	1.9	1.6	1.1
COc1cc2ncnc(-c3cn(C)nc3-c3ccccc3)c2cc1C(C)O (stereo not drawn) [Example 100, 1-(7-methoxy-4-(1-methyl-3-phenyl-1H-pyrazol-4-yl)quinazolin-6-yl)ethan-1-ol]	7.6	2.9	2
